Source: patent US20150148387A1, “METHODS OF TREATMENT, DIAGNOSIS AND […] METHA[…] WHICH TARGET CERAMIDE METABOLIC […] AND […] SENESCENCE” (priority 2012, published 2015)
Entries after “also recorded” stand apart in the source; their conditions may differ. Where two headings read alike, the source gives them in different places.

Key:
[1] = tested on: primary mouse embryonic fibroblasts (MEF); assay type: cell-based; conditions: for ceramide (d18:1/16:0) content: incubation of MEF with the drug alone
Method: (§1) Cells were washed with ice-cold phosphate-buffered saline (PBS) and scraped into 0.5 ml of methanol/water (1:1, vol:vol) containing the internal standards listed below. Protein concentrations were measured using the BCA protein assay (Pierce, Rockford, Ill., USA). Lipids were extracted with chloroform/methanol (2:1, vol:vol; 1.0 mL). The organic phases were collected, dried under nitrogen and dissolved in methanol for LC/MS analyses.
(§2) Helium was used as collision gas. […] Mobile phase composition was as described above.
(§3) Mouse embryonic fibroblasts (MEFs) were prepared from mice embryo as previously reported. Briefly, pregnant mice at day 13 post coitum were sacrificed and the uteri were dissected out. Each embryo was separated from the placenta and the head and visceral tissues were removed. The remaining body was minced in PBS and incubated with 0.1 mM trypsin/1 mM EDTA at 37° C. for 15 min. Two volumes of Dulbecco's Modified Eagle Medium (DMEM) containing 10% fetal bovine serum (FBS) was added and stood for 5 minutes to settle down large pieces of unbroken tissues. The supernatant was then removed and centrifuged at 200×g for 5 min and suspended in fresh DMEM containing 10% FBS. Cells were cultured at 37° C. with 5% CO2.

[2] = tested on: primary mouse embryonic fibroblasts (MEF); experiment: ROS production in MEF (CM-H2DCFDA); assay type: cell-based; conditions: CYP inhibitors with methamphetamine
Method: Production of ROS was measured using the fluorescent probe CM-H2DCFDA (Invitrogen). This carboxy derivative of fluorescein carries additional negative charges that improve its retention compared to noncarboxylated forms. For these experiments, MEFs were grown in DMEM without phenol red, for which anti-oxidative properties have been reported. Cells were plated to subconfluence in 12-well plates, washed 3 times with pre-warmed PBS and loaded for 30 min at 37° C./5% CO2 with […] CM-H2DCFDA in DMEM without phenol red (loading medium). Then the loading medium was removed and pre-warmed fresh medium containing the different CYP450 inhibitors in presence or absence of methamphetamine was added. Fluorescence (excitation at 485 nm, emission at 530 nm) was analyzed immediately, cells were incubated at 37° C./5% CO2, and fluorescence was analyzed at the indicated time points. ROS rate versus control (%) was calculated subtracting the percentage of ROS increasing from time zero in the methamphetamine-treated samples to the percentage of ROS increasing from time zero in vehicle-treated samples.

[3] = tested on: primary mouse embryonic fibroblasts (MEF); assay type: cell-based; conditions: for SA-β-gal expression induced by methamphetamine: methamphetamine 1 mM; for amphetamine-induced inflammation and senescence: measured by beta-galactosidase assay, crystal violet morphology, and gene expression of pro-inflammatory and pro-senescence genes
Method: Detection of senescence-associated β-galactosidase staining was performed as previously reported. Briefly, we plated MEFs on Lab-Tek chamber slides at a density of 5×10^4 cells per chamber. Next day, cells were treated with the indicated dose of drug for 48 hours. Cells were washed twice with PBS and fixed in 2% formaldehyde/0.2% glutaraldehyde for five minutes at room temperature. After two PBS washes the slides were incubated with fresh β-galactosidase stain solution (1 mg/mL 5-bromo-4-chloro-3-indoyl β-D-galactoside (X-Gal) 40 mM sodium phosphate, pH 6.0, 5 mM potassium ferrocyanide, 5 mM potassium ferricyanide, 150 mM NaCl, and 2 mM MgCl2) at 37° C. for 12-16 hours. Slides were washed with PBS and mounted with DAPI containing media. Images were taken for the β-gal staining and overlapped with fluorescent images taken of the same region to count the number of cells staining positive for β-gal (Nikon Eclipse E600). More than 200 cells from 5 different regions of a slide were counted in a blind fashion.

[4] = tested on: de novo ceramide biosynthesis; experiment: Methamphetamine self-administration in rats: lipidomic analysis of tissues by LC/MS; conditions: 8 days self-administration; L-CS i.v. from 4 days into the study (10 then 20 mg/kg before and after sessions)
Method: Male Sprague-Dawley rats (Charles River, Wilmington, Mass.), weighing approximately 360-440 g at the beginning of the self-administration experiment, were individually housed in a temperature- and humidity-controlled environment under a reversed lighting 12-h light/dark cycle (lights on at 7:00 p.m.). The rats were allowed free access to food (NIH07 biscuits) in their home cage throughout the study. Water was available ad libitum in the home cage and in the testing chamber. Rats were tested in the light phase. They were experimentally and drug naïve at the beginning of this study.
Each of eighteen standard operant-conditioning chambers (Coulbourn Instruments, Lehigh Valley, Pa.) contained a white house light and two holes with nose-poke operanda on either side of a food trough. Upon activation, each nose poke produced a brief feedback tone. […] The tubing was attached to a syringe pump (Harvard Apparatus, South Natick, Mass.), which was programmed to deliver 2-s injections. The injected volume was adjusted for every animal to deliver a methamphetamine dose of 0.1 mg/kg/injection. Experimental events were controlled by microcomputers using MED Associates interfaces and software (Med Associates Inc., East Fairfield, Vt.).
Silastic catheter was implanted into the external jugular vein under anesthesia with a mixture of ketamine and xylazine (60 and 10 mg/kg i.p., respectively). Catheter exited the skin behind the ear. After catheter implantation, a nylon bolt glued to an acrylic mesh was implanted subcutaneously in the midscapular region. The nylon bolt served as a tether, preventing the catheter from being pulled out during self-administration sessions. Following surgery, the IV catheter was flushed daily during the first week with 0.2-0.3 ml of solution containing cephalosporin (100 mg/ml; Cefazolin For Injection, USP; Hospira Inc., Lake Forest, Ill., USA) and then flushed before and after each daily session with saline to maintain its patency) and then flushed after each daily session with saline to maintain its patency.
Each experimental group was divided into two subgroups that were tested simultaneously. One subgroup served as yoked controls and passively received an injection of saline (which was not contingent on responding) each time a response-contingent injection of 0.1 mg/kg methamphetamine was actively self-administered by the first subgroup of rats. […] The first experimental groups consisted of 12 rats self-administering methamphetamine and 6 yoked control rats. The second experimental group consisted of 9 rats self-administering methamphetamine and 9 yoked control rats. The third experimental group consisted of 16 rats self-administering methamphetamine and 8 yoked control rats. […] The pretreatment with L-CS was always given immediately before and after each session and the catheter was flushed with 0.5 ml of saline afterwards. Before and after sessions 4 and 5 animals received dose 10 mg/kg of L-CS and before and after sessions 6, 7, and 8 they received dose 20 mg/kg of L-CS. The animals received total dose 160 mg/kg of L-CS during the experiment.
Eight consecutive 15-hour sessions were conducted between 4 p.m. and 8 a.m. Rats and the food in the feeders were weighed before the start of each session. At the start of each session, a white house light was turned on and a priming injection of 0.1 mg/kg methamphetamine (or saline for yoked group), sufficient to fill the “dead” space of the IV catheter, was automatically delivered. Rats learned to self-administer methamphetamine under one-response, fixed ratio schedule (FRI) of i.v. methamphetamine injection with 30-s time-out duration.

[5] = tested on: primary mouse embryonic fibroblasts (MEF); experiment: Gene expression in MEF; assay type: cell-based; conditions: MEF; co-administration with methamphetamine
Method: Total RNA was extracted from frozen tissues using TRIzol reagent (Invitrogen, Carlsbad, Calif.) and was purified with the RNeasy mini kit (Qiagen, Valencia, Calif.). First-strand complementary DNAs were synthesized using SuperScript II RNaseH reverse transcriptase (Invitrogen). Reverse transcription of total RNA (2 μg) was carried out using oligo(dT)12-18 primers for 50 min at 42° C. mRNA levels were measured by quantitative real-time polymerase chain reaction (RT-PCR) with a Mx 3000P system (Stratagene, La Jolla, Calif.). The following list of primers and fluorogenic probes purchased from Applied Biosystems (TaqMan Gene Expression Assays, Foster City, Calif.): Ceramide Synthase 1 (Rn01420081_m1), Ceramide Synthase 2 (Rn01762789_m1), Ceramide Synthase 4 (Rn01767402_m1), Ceramide Synthase 5 (Rn01532864_m1), Ceramide Synthase 6 (Rn01270930_m1), Interleukin-6 (Rn01410330_m1). mRNA levels were normalized using beta actin, 18S ribosomal protein or glyceraldehyde-3-phosphate dehydrogenase as internal standards. Additional PCR primers were designed using Primer 3 (https://www.Frodo.wit.mit.edu), and the sequences are shown in S.Table XXX.
as §3

[6] = tested on: isolated mitochondria from primary MEF; experiment: Lipid analysis of isolated mitochondria from MEF; assay type: cell-based, mouse; conditions: isolated mitochondria from primary MEF; inhibitor 30 μM
Method: as §1, §2, §3

[7] = Methamphetamine self-administration in rats: self-administration, body weight, body temperature, food intake; assay type: in vivo, rat
Method: Each experimental group was divided into two subgroups that were tested simultaneously. One subgroup served as yoked controls and passively received an injection of saline (which was not contingent on responding) each time a response-contingent injection of 0.1 mg/kg methamphetamine was actively self-administered by the first subgroup of rats. […] The first experimental groups consisted of 12 rats self-administering methamphetamine and 6 yoked control rats. The second experimental group consisted of 9 rats self-administering methamphetamine and 9 yoked control rats. The third experimental group consisted of 16 rats self-administering methamphetamine and 8 yoked control rats. […] The pretreatment with L-CS was always given immediately before and after each session and the catheter was flushed with 0.5 ml of saline afterwards. Before and after sessions 4 and 5 animals received dose 10 mg/kg of L-CS and before and after sessions 6, 7, and 8 they received dose 20 mg/kg of L-CS. The animals received total dose 160 mg/kg of L-CS during the experiment. In this group, we also measured three times the rectal temperature. The first measurement was done one the day before the experiment began at 2 pm, the second measurement was done at 2 pm before the eighth session, and the third measurement immediately after the eighth session.
Eight consecutive 15-hour sessions were conducted between 4 p.m. and 8 a.m. Rats and the food in the feeders were weighed before the start of each session. At the start of each session, a white house light was turned on and a priming injection of 0.1 mg/kg methamphetamine (or saline for yoked group), sufficient to fill the “dead” space of the IV catheter, was automatically delivered. Rats learned to self-administer methamphetamine under one-response, fixed ratio schedule (FRI) of i.v. methamphetamine injection with 30-s time-out duration. Each nose-poke response in the active hole (FRI) produced a delivery of an i.v. injection of 0.1 mg/kg of methamphetamine followed by 30-s timeout period, during which the chamber was dark and responses in either hole had no programmed consequences.

[8] = tested on: ceramide content and IL-6 and p21 mRNA; experiment: Acute experiment in mice: methamphetamine alone or in combination with L-CS; conditions: methamphetamine in combination with L-CS

TNF-α
cellular ceramide content ([1]; MEF, TNF-α treatment activating NF-κB): mimic the effects of methamphetamine

CCCC(C(=O)OCCN(CC)CC)(c1ccccc1)c1ccccc1 [SKF-525A]
release of ROS evoked by methamphetamine [2]: prevented | ceramide formation in D-meth-treated cells ([1]; MEF, inhibitors each at 10 μM): normalized

CCCCc1ccc(N=CNO)c(C)c1 [HET-0016]
ceramide formation in D-meth-treated cells ([1]; MEF, inhibitors each at 10 μM): ineffective

C[C@H](N)Cc1ccccc1 [d-amphetamine]
ceramide (d18:1/16:0) content [1]: modest but statistically significant (p<0.014) increase

CN/C(=N/CCSCc1nc[nH]c1C)NC#N [cimetidine]
release of ROS evoked by methamphetamine [2]: prevented | ceramide formation in D-meth-treated cells [1]: normalized

CCCC[C@@H](C)[C@@H](OC(=O)C[C@@H](CC(=O)O)C(=O)O)[C@H](C[C@@H](C)C[C@H](O)CCCC[C@@H](O)C[C@H](O)[C@H](C)N)OC(=O)C[C@@H](CC(=O)O)C(=O)O [Fumonisin B1]
expression of SA-β-gal by the cell-permeable ceramide analog C8 ([3]; C8 in presence of L-CS or FB1): neither L-CS nor FB1 blocked | SA-β-gal expression induced by methamphetamine ([3]; inhibitor 50 μM): suppressed

N[C@H]1CONC1=O [L-cycloserine]
methamphetamine induced increases in ceramide content [4]: blocked | methamphetamine-induced increase in the transcription of IL-6, TNF-alpha, p21 and p53 [5]: blocked | expression of SA-β-gal by the cell-permeable ceramide analog C8 [3]: neither L-CS nor FB1 blocked | amphetamine-induced inflammation and senescence [3]: prevent | SA-β-gal expression induced by methamphetamine ([3]; inhibitor 30 μM): suppressed | methamphetamine induced increases in ceramide [6]: able to block | methamphetamine-induced reduction of food intake ([7]; L-CS treatment): did not alter | meth induced changes in body temperature ([7]; L-CS treatment, listed as L-CS): did not alter | methamphetamine self-administration ([7]; L-CS treatment, listed as L-CS): no effect; also recorded: did not alter | body weight (wasting phenotype) ([7]; methamphetamine self-administering animals treated with L-CS, listed as L-CS): able to rescue the wasting phenotype; also recorded: corrected the abnormalities in body weight | methamphetamine induced increases in ceramide ([1]; primary MEF, inhibitor 30 μM): able to block | methamphetamine-induced increase of ceramide [8]: block the increase

O=C1CCC(N2C(=O)c3ccccc3C2=O)C(=O)N1 (stereo not shown) [thalidomide]
amphetamine-induced inflammation and senescence [3]: prevent

CN[C@@H](C)Cc1ccccc1.Cl [L-methamphetamine, L-methamphetamine hydrochloride]
ceramide (d18:1/16:0) content [1]: no such effect

C=C[C@H]1C[N@@]2CC[C@H]1C[C@@H]2[C@@H](O)c1ccnc2ccc(OC)cc12 [quinidine]
release of ROS evoked by methamphetamine [2]: prevented | ceramide formation in D-meth-treated cells ([1]; MEF, inhibitors each at 10 μM): normalized
